Read-outs that look alike come from different tables or passages of the source.

In general, EC50 refers to the concentration that produces a half-maximal response.

For the experiment, the target named is T1, human APJ receptor (Homo sapiens, UniProt P35414).
T1 construct: expressed in transfected cells
T1 sequence (P35414 1-380): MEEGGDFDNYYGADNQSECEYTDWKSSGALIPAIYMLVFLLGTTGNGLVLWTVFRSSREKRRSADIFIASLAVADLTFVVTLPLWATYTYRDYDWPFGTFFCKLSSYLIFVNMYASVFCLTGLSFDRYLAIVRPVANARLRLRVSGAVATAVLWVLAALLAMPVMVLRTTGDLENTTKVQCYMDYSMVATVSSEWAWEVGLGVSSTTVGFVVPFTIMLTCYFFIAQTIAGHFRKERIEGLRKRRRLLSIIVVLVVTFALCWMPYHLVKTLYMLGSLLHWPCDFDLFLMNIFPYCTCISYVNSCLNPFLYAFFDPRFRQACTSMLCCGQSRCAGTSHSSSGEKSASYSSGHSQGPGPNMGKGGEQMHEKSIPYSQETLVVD
Description: Intracellular cAMP accumulation assay (APJ hcAMP, HTRF). The class given is cell-based. Particulars: HEK293 cells stably expressing human APJ. Put shortly:
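Inhibition of forskolin (2 μM)-stimulated cAMP, with […], was measured after 30 min compound exposure at room temperature in stably transfected HEK293 cells. HTRF ratios were converted to cAMP via standard curve, and EC50 values came from variable-slope sigmoidal concentration-response fitting.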
Background: cAMP levels reflect the balance of adenylyl cyclase and phosphodiesterase activity.

Where [1] appears, read: Table 1, forskolin-stimulated cAMP, read-out: APJ cAMP EC50.
Setting [2] is: Table 4, forskolin-stimulated cAMP, read-out: Human cAMP EC50.
The mark [3] stands for this setting: Table 3, forskolin-stimulated cAMP, read-out: APJ cAMP EC50.

Turning to `CCCCc1nc(O)c(C(=O)N2CCC(c3nc(-c4cccnc4)no3)CC2)c(O)c1-c1c(OC)cccc1OC` [Example 69, 6-butyl-5-(2,6-dimethoxyphenyl)-3-{4-[3-(pyridin-3-yl)-1,2,4-oxadiazol-5-yl]piperidine-1-carbonyl}pyridine-2,4-idiol], under setting [1], the EC50 was in the range of 10 to 100 nM. For `CCOCc1nc(O)c(C(=O)N2CCN(Cc3cccc(F)c3)CC2)c(O)c1-c1ccccc1OC` [Example 91, 6-(ethoxymethyl)-3-{4-[(3-fluorophenyl)methyl]piperazine-1-carbonyl}-5-(2-methoxyphenyl)pyridine-2,4-diol], under setting [2], the EC50 fell in the range of 10 to 100 nM. Turning to `CCCCc1nc(O)c(C(=O)N(C)CCNc2ncc(Cl)cc2F)c(O)c1-c1c(OC)cccc1OC` [Example 102, 6-butyl-N-{2-[(5-chloro-3-fluoropyridin-2-yl)amino]ethyl}-5-(2,6-dimethoxyphenyl)-2,4-dihydroxy-N-methylpyridine-3-carboxamide], under setting [2], the EC50 is 10 to 100 nM. Take `CCCCc1nc(O)c(C(=O)N2CCN(c3ccccc3OC)CC2)c(O)c1-c1c(OC)cccc1OC` [Example 12, 6-butyl-5-(2,6-dimethoxyphenyl)-3-[4-(2-methoxyphenyl)piperazine-1-carbonyl]pyridine-2,4-diol]: the EC50 under setting [1] lay in the range of 0.01 to 10 nM. For `CCCCc1nc(O)c(C(=O)N2CCC(c3ccc(F)cn3)C2)c(O)c1-c1c(OC)cccc1OC` (stereo not drawn) [Example 80, 6-butyl-5-(2,6-dimethoxyphenyl)-3-[3-(5-fluoropyridin-2-yl)pyrrolidine-1-carbonyl]pyridine-2,4-diol], under setting [3], the EC50 fell in the range of 0.01 to 10 nM. As for `CCOCc1nc(O)c(C(=O)N2CCC(c3ccccc3F)C2)c(O)c1-c1c(OC)cccc1OC` (stereo not drawn) [Example 126, 5-(2,6-dimethoxyphenyl)-6-(ethoxymethyl)-3-[3-(2-fluorophenyl)pyrrolidine-1-carbonyl]pyridine-2,4-diol], the EC50 (Table 5, forskolin-stimulated cAMP, read-out: Human cAMP EC50) lay in the range of 0.01 to 10 nM.

Turning to `CCCCc1nc(O)c(C(=O)N(C)CCNC(=O)c2ccccc2)c(O)c1-c1c(OC)cccc1OC` [Example 95, N-(2-{1-[6-butyl-5-(2,6-dimethoxyphenyl)-2,4-dihydroxypyridin-3-yl]-N-methylformamido}ethyl)benzamide], the EC50 under setting [2] was in the range of 10 to 100 nM. Same read-out and setting: next, `CCCCc1nc(O)c(C(=O)N2CCN(Cc3ccc(Cl)cc3Cl)CC2)c(O)c1-c1c(OC)cccc1OC` [Example 93, 6-butyl-3-{4-[(2,4-dichlorophenyl)methyl]piperazine-1-carbonyl}-5-(2,6-dimethoxyphenyl)pyridine-2,4-diol]: 0.01 to 10 nM. Consider `CCOCc1nc(O)c(C(=O)N2CCC(c3ncc(F)cc3F)C2)c(O)c1-c1c(OC)cccc1OC` (stereo not drawn) [Example 84, 3-[3-(3,5-difluoropyridin-2-yl)pyrrolidine-1-carbonyl]-5-(2,6-dimethoxyphenyl)-6-(ethoxymethyl)pyridine-2,4-diol], for which the EC50 under setting [3] fell in the range of 0.01 to 10 nM. With `CCNCc1nc(O)c(C(=O)N2CCC(c3ccccc3F)C2)c(O)c1-c1c(OC)cccc1OC` (stereo not drawn) [Example 151, 5-(2,6-dimethoxyphenyl)-6-[(ethylamino)methyl]-3-[3-(2-fluorophenyl)pyrrolidine-1-carbonyl]pyridine-2,4-diol], where the note is “Table 8, forskolin-stimulated cAMP, read-out: Human cAMP EC50”, the EC50 is 10 to 100 nM. With `CCCCc1nc(O)c(C(=O)N2CCN(c3ccc(NC(=O)OC)cc3)CC2)c(O)c1-c1c(OC)cccc1OC` [Example 10, methyl N-(4-{4-[6-butyl-5-(2,6-dimethoxyphenyl)-2,4-dihydroxypyridine-3-carbonyl]piperazin-1-yl}phenyl)carbamate], the EC50 under setting [1] is 10 to 100 nM. For the compound `CCCCc1nc(O)c(C(=O)N2CCN(c3nccn3C)CC2)c(O)c1-c1c(OC)cccc1OC` [Example 3, 6-butyl-5-(2,6-dimethoxyphenyl)-3-[4-(1-methyl-1H-imidazol-2-yl)piperazine-1-carbonyl]pyridine-2,4-diol], the EC50 under setting [1] lay within 100 to 300 nM.

For the compound `CCOCc1nc(O)c(C(=O)N2CCC(c3c(F)cccc3F)C2)c(O)c1-c1c(OC)cccc1OC` (stereo not drawn) [Example 134, 3-[3-(2,6-difluorophenyl)pyrrolidine-1-carbonyl]-5-(2,6-dimethoxyphenyl)-6-(ethoxymethyl)-4-hydroxy-1,2-dihydropyridin-2-one], the EC50 (Table 6, forskolin-stimulated cAMP, read-out: Human cAMP EC50) was 0.01 to 10 nM. On to `CCCCc1nc(O)c(C(=O)N2CCC3(CC2)OC(=O)Nc2ccccc23)c(O)c1-c1c(OC)cccc1OC` [Example 50, 1′-[6-butyl-5-(2,6-dimethoxyphenyl)-2,4-dihydroxypyridine-3-carbonyl]-1,2-dihydrospiro[3,1-benzoxazine-4,4′-piperidine]-2-one], for which the EC50 under setting [1] was 10 to 100 nM. `CCCCc1nc(O)c(C(=O)N2CCN(C(=O)c3cccc(Cl)c3Cl)CC2)c(O)c1-c1c(OC)cccc1OC` [Example 153, 6-butyl-3-[4-(2,3-dichlorobenzoyl)piperazine-1-carbonyl]-5-(2,6-dimethoxyphenyl)pyridine-2,4-diol]: the EC50 under setting [2] fell in the range of 0.01 to 10 nM.

For the compound `CCCCc1nc(O)c(C(=O)N2CCN(CC3CCCCC3)CC2)c(O)c1-c1c(OC)cccc1OC` [Example 109, 6-butyl-3-[4-(cyclohexylmethyl)piperazine-1-carbonyl]-5-(2,6-dimethoxyphenyl)pyridine-2,4-diol], the EC50 under setting [2] was in the range of 10 to 100 nM. As for `CCCCc1nc(O)c(C(=O)N2CCC3(CC2)OCc2ccccc23)c(O)c1-c1c(OC)cccc1OC` [Example 64, 6-butyl-5-(2,6-dimethoxyphenyl)-3-({3H-spiro[2-benzofuran-1,4′-piperidine]-1′-yl}carbonyl)pyridine-2,4-diol], the EC50 under setting [1] was 10 to 100 nM. For `CCCCc1nc(O)c(C(=O)N2CCN(Cc3cccc(C)c3F)CC2)c(O)c1-c1c(OC)cccc1OC` [Example 121, 6-butyl-5-(2,6-dimethoxyphenyl)-3-{4-[(2-fluoro-3-methylphenyl)methyl]piperazine-1-carbonyl}pyridine-2,4-diol], under setting [2], the EC50 fell in the range of 0.01 to 10 nM. `CCCCc1nc(O)c(C(=O)N2CCCC2c2ccccn2)c(O)c1-c1c(OC)cccc1OC` (racemic) [Example 8, 6-butyl-5-(2,6-dimethoxyphenyl)-3-[2-(pyridin-2-yl)pyrrolidine-1-carbonyl]pyridine-2,4-diol]: for the setting “Table 2, forskolin-stimulated cAMP, read-out: APJ cAMP EC50”, the 50% effective concentration (EC50) fell in the range of 0.01 to 10 nM. For the compound `CCCCc1nc(O)c(C(=O)N2CCN(Cc3cccc(Cl)c3Cl)CC2)c(O)c1-c1c(OC)cccc1OC` [Example 94, 6-butyl-3-{4-[(2,3-dichlorophenyl)methyl]piperazine-1-carbonyl}-5-(2,6-dimethoxyphenyl)pyridine-2,4-diol], under setting [2], the EC50 lay within 0.01 to 10 nM.

As to `CCCCc1nc(O)c(C(=O)N2CCC(c3ccc(Cl)cn3)C2)c(O)c1-c1c(OC)cccc1OC` (single isomer, unassigned) [Example 74, (6-butyl-5-(2,6-dimethoxyphenyl)-2,4-dihydroxypyridin-3-yl)(3-(5-chloropyridin-2-yl)pyrrolidin-1-yl)methanone], where the note is “read-out: Human APJ cAMP EC50 Potency range”, the EC50 fell in the range of 0.01 to 10 nM. For the compound `CCCCc1nc(O)c(C(=O)N2CCC(c3c[nH]cn3)CC2)c(O)c1-c1c(OC)cccc1OC` [Example 55, 6-butyl-5-(2,6-dimethoxyphenyl)-3-[4-(1H-imidazol-4-yl)piperidine-1-carbonyl]pyridine-2,4-diol], under setting [1], the EC50 is 10 to 100 nM. For `CCCCc1nc(O)c(C(=O)N2CCN(CC3CC3)CC2)c(O)c1-c1c(OC)cccc1OC` [Example 111], under setting [2], the EC50 was in the range of 10 to 100 nM. Consider `CCCCc1nc(O)c(C(=O)N2CCC(N3CCCC3)CC2)c(O)c1-c1c(OC)cccc1OC` [Example 61, 6-butyl-5-(2,6-dimethoxyphenyl)-3-[4-(pyrrolidin-1-yl)piperidine-1-carbonyl]pyridine-2,4-diol], for which the EC50 under setting [1] was in the range of 10 to 100 nM.

The record behind these values is patent US10392347B2, “2,4-dihydroxy-nicotinamides as APJ agonists” (BRISTOL-MYERS SQUIBB COMPANY, priority 2015, dated 2019).
